From the supplement of paper PMC10307832

Columns and labels:
Experiment in all cases: relative viability (nuclei count vs DMSO), 5 days (fraction); higher = more cells survive
[1] = compound: O=C(NC1CCNCC1)c1n[nH]cc1NC(=O)c1c(Cl)cccc1Cl [AT-7519] + NC(=O)Nc1cc(-c2cccc(F)c2)sc1C(=O)N[C@H]1CCCNC1 [AZD7762] (partner 0.2 µM)
Procedure, shortened: (§1)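 Relative viability is defined as nuclei in treated wells over nuclei in vehicle wells. Duplicate plates were run and medians reported. Lung cancer cell lines in 1536-well plates were dosed by pin tool one day after seeding, with one drug or with a fixed anchor-drug dose plus five library-drug doses (not always all listed) in √10 steps, and nuclei were counted after 5 days.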

[2] = compound: C1=CC2=C(C=C(C(=C2N=C1)O)N=NC3=CC4=C(C=C3)C=C(C=C4)S(=O)(=O)O)S(=O)(=O)O + CC(C)C[C@H](NC(=O)[C@H](Cc1ccccc1)NC(=O)c1cnccn1)B(O)O [Bortezomib] (partner 0.002 µM)
Procedure, shortened: as §1

[3] = compound: O=C(NC1CCNCC1)c1n[nH]cc1NC(=O)c1c(Cl)cccc1Cl [AT-7519] + CC(C)C[C@H](NC(=O)[C@H](Cc1ccccc1)NC(=O)c1cnccn1)B(O)O [Bortezomib] (partner 0.002 µM)
Procedure, shortened: as §1

[4] = compound: C1=CC2=C(C=C(C(=C2N=C1)O)N=NC3=CC4=C(C=C3)C=C(C=C4)S(=O)(=O)O)S(=O)(=O)O + C[C@@H](Oc1cc(-c2cnn(C3CCNCC3)c2)cnc1N)c1c(Cl)ccc(F)c1Cl [Crizotinib] (partner 1 µM)
Procedure, shortened: as §1

Row | Cell Line | relative viability ([1]; first compound 0.01 µM) | relative viability ([1]; first compound 0.03162 µM) | relative viability ([1]; first compound 0.3162 µM) | relative viability ([1]; first compound 1 µM) | relative viability ([2]; first compound 0.08 µM) | relative viability ([2]; first compound 0.253 µM) | relative viability ([2]; first compound 0.8 µM) | relative viability ([2]; first compound 2.53 µM) | relative viability ([2]; first compound 8 µM) | relative viability ([3]; first compound 0.01 µM) | relative viability ([3]; first compound 0.03162 µM) | relative viability ([3]; first compound 0.3162 µM) | relative viability ([3]; first compound 1 µM) | relative viability ([4]; first compound 0.08 µM) | relative viability ([4]; first compound 0.253 µM) | relative viability ([4]; first compound 0.8 µM) | relative viability ([4]; first compound 2.53 µM) | relative viability ([4]; first compound 8 µM)
1 | ChaGo-K-1 | 0.895 | 0.838 | 0.843 | 0.844 | 1.05 | 1.03 | 0.986 | 0.958 | 0.557 | 1.03 | 1.37 | 0.763 | 0.96 | 1.12 | 1.16 | 1.13 | 1.21 | 1.12
2 | PC-14 | 0.416 | 0.261 | 0.38 | 0.44 | 0.923 | 0.839 | 0.906 | 0.888 | 0.856 | 0.807 | 0.71 | 0.861 | 0.618 | 0.944 | 0.833 | 0.907 | 0.892 | 0.941
3 | NCI-H1437 | 0.989 | 1.09 | 1.07 | 0.982 | 0.578 | 0.509 | 0.483 | 0.414 | 0.4 | 0.448 | 0.514 | 0.494 | 0.307 | 1.07 | 0.894 | 0.897 | 0.909 | 0.919
4 | NCI-H460 | 0.665 | 0.653 | 1.02 | 0.693 | 1.39 | 1.04 | 0.99 | 1.19 | 1.09 | 1.05 | 0.91 | 0.533 | 0.046 | 1.16 | 0.98 | 0.85 | 1.09 | 0.836
5 | NCI-H1666 | 0.852 | 0.818 | 0.917 | 0.863 | 0.874 | 0.658 | 0.799 | 0.859 | 0.658 | 0.782 | 0.794 | 0.733 | 0.333 | 1.22 | 0.949 | 0.95 | 1.06 | 0.946
6 | NCI-H1651 | 0.531 | 0.49 | 0.536 | 0.561 | 0.942 | 0.903 | 0.894 | 0.963 | 0.755 | 0.912 | 0.917 | 0.971 | 0.974 | 0.968 | 0.834 | 0.837 | 0.874 | 0.729
7 | NCI-H1755 | 0.427 | 0.461 | 0.629 | 0.428 | 1.08 | 0.962 | 0.934 | 0.95 | 0.958 | 0.927 | 1.09 | 0.976 | 0.969 | 0.977 | 0.819 | 0.858 | 0.938 | 0.849
8 | HARA | 0.221 | 0.301 | 0.263 | 0.415 | 1.14 | 1.08 | 1.03 | 1.13 | 1.01 | 1.14 | 1.16 | 1.1 | 1.06 | 1.1 | 1.01 | 1.03 | 1.02 | 1.04
9 | NCI-H596 | 1.22 | 1.06 | 0.982 | 0.938 | 1.43 | 1.16 | 0.974 | 1.02 | 0.769 | 1.08 | 1.13 | 0.882 | 1.03 | 1.13 | 1.02 | 0.921 | 0.899 | 0.898
10 | NCI-H23 | 0.258 | 0.262 | 0.242 | 0.309 | 1.06 | 0.82 | 1.08 | 1.06 | 0.897 | 0.983 | 1.04 | 0.852 | 0.504 | 0.539 | 0.614 | 0.463 | 0.533 | 0.51
11 | LCLC-97TM1 | 0.24 | 0.294 | 0.335 | 0.394 | 0.815 | 0.492 | 0.525 | 0.753 | 0.395 | 1.22 | 0.58 | 0.379 | 0.123 | – | 0.35 | – | 0.424 | 0.325
12 | EPLC-272H | 0.321 | 0.21 | 0.302 | 0.336 | 0.895 | 0.917 | 0.935 | 0.924 | 0.902 | 1.03 | 0.973 | 0.723 | 0.812 | 1.14 | 0.883 | 0.977 | 0.978 | 0.964
13 | NCI-H1915 | 0.704 | 0.689 | 0.773 | 0.782 | 1.02 | 0.957 | 0.92 | 0.892 | 0.935 | 1.07 | 1.06 | 0.546 | 0.944 | 0.973 | 0.864 | 0.893 | 0.912 | 0.925
14 | NCI-H2405 | 0.732 | 0.724 | 0.683 | 0.527 | 1.04 | 0.952 | 0.979 | 0.935 | 0.4 | 0.978 | 1.04 | 1.02 | 0.863 | 0.927 | 0.806 | 0.808 | 0.847 | 0.869
15 | NCI-H322M | 0.534 | 0.533 | 0.578 | 0.639 | 1.26 | 1.11 | 1.22 | 1.32 | 1.28 | 1.2 | 1.26 | 1.27 | 1.52 | 1.12 | 0.892 | 0.904 | 1.07 | 1.02
16 | NCI-H838 | 0.925 | 0.949 | 0.936 | 0.861 | 0.753 | 0.909 | 0.674 | 0.633 | 0.764 | 0.644 | 0.804 | 0.416 | 0.0826 | 0.992 | 0.734 | 0.848 | 0.943 | 0.811
17 | CAL-12T | 0.701 | 0.623 | 0.58 | 0.354 | 0.843 | 0.914 | 0.788 | 0.979 | 1.03 | – | 0.929 | 0.593 | 0.336 | 0.69 | 0.528 | 0.711 | 0.932 | 0.717
